According to ChEMBL document CHEMBL5380870, “Halo Library, a Tool for Rapid Identification of Ligand Binding Sites on Proteins Using Crystallographic Fragment Screening” (J Med Chem, 2023):

Experiments:
[1] = test system: Human immunodeficiency virus type 1 reverse transcriptase (Human immunodeficiency virus 1), Q72547 [UNDEFINED MUTATION]; conditions: time 140.0 min, at 5 mM
[2] = target: Human immunodeficiency virus type 1 reverse transcriptase (Human immunodeficiency virus 1, UniProt Q72547); assay: Inhibition of HIV-1 reverse transcriptase RT52A mutant using ABTS as substrate preincubated with compound for 1 hr followed by template-primer addition for 1 hr and measured 20 mins after substrate addition by absorbance based Roche colorimetric assay

SMILES	inhibition [1]	IC50 [2]
Cc1c(CO)cnn1-c1ccc(F)cc1	55%	–
Oc1ccc(C(F)(F)F)cn1	35%	–
O=c1[nH]cnc2cccc(F)c12	55%	–
Brc1cn[nH]c1	22%	–
O=C(O)c1cc2cc(F)ccc2[nH]1 [5-FLUOROINDOLE-2-CARBOXYLIC ACID]	99%	2.9 mM
Nc1ccncc1Br	99%	2.1 mM
Ic1cn[nH]c1	24%	–
CNc1ccc(C(F)(F)F)cc1N	35%	–
NCc1cccc(Br)c1	96%	–
N#Cc1c(N)cccc1F	75%	–
NCCc1c(F)cccc1Cl	99%	2.1 mM
